Measured values from patent publication US20110009351A1, “SCREENING ASSAY TO IDENTIFY CORRECTORS OF PROTEIN TRAFFICKING DEFECTS” (Traffick Therepeutics Inc., priority 2007, published 2011).

Assays:
Format in all cases: cell-based
wt CFTR [1] = target: T1, wt CFTR (Homo sapiens, UniProt P13569); assay: immunoblot and densitometry of mature band C, BHK cells expressing wt CFTR; settings: 10% glycerol
T1 construct: which was then ligated into full length pNUT-CFTR linearized using Hpa1 and Pml1; expressed in transfected cells
T1 sequence (P13569 whole entry): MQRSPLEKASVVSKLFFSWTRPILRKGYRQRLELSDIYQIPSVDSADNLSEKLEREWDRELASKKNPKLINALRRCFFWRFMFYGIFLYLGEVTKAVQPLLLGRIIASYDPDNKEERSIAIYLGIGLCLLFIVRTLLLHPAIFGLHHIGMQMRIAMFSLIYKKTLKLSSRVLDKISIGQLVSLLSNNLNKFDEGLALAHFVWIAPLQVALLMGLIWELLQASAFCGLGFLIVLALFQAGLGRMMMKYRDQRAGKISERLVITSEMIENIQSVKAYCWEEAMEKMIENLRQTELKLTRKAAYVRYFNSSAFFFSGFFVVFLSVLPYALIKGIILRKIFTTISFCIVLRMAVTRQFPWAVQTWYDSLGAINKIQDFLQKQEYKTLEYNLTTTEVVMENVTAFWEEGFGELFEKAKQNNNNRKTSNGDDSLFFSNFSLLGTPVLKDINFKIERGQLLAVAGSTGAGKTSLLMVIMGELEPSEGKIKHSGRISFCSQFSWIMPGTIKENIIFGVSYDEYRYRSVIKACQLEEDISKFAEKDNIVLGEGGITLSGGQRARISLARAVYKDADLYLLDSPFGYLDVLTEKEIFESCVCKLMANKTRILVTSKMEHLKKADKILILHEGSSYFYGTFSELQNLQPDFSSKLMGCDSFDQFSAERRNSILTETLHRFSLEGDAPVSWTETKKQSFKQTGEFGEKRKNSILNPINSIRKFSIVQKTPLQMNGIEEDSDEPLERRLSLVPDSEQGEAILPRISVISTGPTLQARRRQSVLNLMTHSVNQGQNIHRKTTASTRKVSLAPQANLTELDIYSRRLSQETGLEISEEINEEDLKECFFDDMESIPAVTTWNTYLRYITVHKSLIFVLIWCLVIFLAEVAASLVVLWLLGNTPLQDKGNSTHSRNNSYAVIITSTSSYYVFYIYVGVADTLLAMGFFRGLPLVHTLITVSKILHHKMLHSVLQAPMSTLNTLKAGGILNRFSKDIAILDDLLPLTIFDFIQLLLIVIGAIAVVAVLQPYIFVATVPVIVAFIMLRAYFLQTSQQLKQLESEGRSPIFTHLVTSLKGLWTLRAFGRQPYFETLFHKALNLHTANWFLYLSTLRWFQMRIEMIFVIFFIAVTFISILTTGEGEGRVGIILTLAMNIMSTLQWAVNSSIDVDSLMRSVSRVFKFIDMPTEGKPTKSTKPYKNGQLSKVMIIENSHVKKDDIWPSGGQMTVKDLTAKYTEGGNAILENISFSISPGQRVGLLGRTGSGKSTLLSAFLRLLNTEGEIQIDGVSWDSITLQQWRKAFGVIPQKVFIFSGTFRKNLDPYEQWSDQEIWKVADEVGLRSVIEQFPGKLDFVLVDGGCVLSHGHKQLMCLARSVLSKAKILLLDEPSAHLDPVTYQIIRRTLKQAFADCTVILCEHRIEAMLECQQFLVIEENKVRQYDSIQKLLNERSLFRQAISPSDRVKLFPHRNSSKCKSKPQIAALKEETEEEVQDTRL
Protocol: (§1) Cell lysates were quantitated by Bradford assay (BioRad) and separated by SDS-PAGE (6% polyacrylamide gels) and analyzed by Western blotting. Western blots were blocked using 5% skimmed milk in PBS, then probed overnight at 4° C. with a primary anti-CFTR antibody at a dilution of 1:1000 monoclonal mouse antibody (clone M3A7, Chemicon). The blots were washed four times in PBS before the addition of the secondary HRP-conjugated anti-mouse antibody, at a dilution of 1:5000 (Amersham) for one hour at room temperature. The blots were washed five times in PBS and probed for chemiluminescence (Pierce). All samples were run with equal protein loading as determined using the Bradford assay (Biorad). Densitometry of the immunoblots was performed using the ImageJ program (National Institutes of Health).

ΔF508-CFTR [2] = target: T2, ΔF508-CFTR (Homo sapiens, UniProt P13569, DEL508-508); assay: immunoblot and densitometry of mature band C, BHK cells expressing ΔF508-CFTR; design: which was then ligated into full length pNUT-CFTR linearized using Hpa1 and Pml1; expressed in transfected cells; settings: 10% glycerol, ΔF508-CFTR
T2 sequence (P13569 with tags, fused parts or gaps DEL508-508): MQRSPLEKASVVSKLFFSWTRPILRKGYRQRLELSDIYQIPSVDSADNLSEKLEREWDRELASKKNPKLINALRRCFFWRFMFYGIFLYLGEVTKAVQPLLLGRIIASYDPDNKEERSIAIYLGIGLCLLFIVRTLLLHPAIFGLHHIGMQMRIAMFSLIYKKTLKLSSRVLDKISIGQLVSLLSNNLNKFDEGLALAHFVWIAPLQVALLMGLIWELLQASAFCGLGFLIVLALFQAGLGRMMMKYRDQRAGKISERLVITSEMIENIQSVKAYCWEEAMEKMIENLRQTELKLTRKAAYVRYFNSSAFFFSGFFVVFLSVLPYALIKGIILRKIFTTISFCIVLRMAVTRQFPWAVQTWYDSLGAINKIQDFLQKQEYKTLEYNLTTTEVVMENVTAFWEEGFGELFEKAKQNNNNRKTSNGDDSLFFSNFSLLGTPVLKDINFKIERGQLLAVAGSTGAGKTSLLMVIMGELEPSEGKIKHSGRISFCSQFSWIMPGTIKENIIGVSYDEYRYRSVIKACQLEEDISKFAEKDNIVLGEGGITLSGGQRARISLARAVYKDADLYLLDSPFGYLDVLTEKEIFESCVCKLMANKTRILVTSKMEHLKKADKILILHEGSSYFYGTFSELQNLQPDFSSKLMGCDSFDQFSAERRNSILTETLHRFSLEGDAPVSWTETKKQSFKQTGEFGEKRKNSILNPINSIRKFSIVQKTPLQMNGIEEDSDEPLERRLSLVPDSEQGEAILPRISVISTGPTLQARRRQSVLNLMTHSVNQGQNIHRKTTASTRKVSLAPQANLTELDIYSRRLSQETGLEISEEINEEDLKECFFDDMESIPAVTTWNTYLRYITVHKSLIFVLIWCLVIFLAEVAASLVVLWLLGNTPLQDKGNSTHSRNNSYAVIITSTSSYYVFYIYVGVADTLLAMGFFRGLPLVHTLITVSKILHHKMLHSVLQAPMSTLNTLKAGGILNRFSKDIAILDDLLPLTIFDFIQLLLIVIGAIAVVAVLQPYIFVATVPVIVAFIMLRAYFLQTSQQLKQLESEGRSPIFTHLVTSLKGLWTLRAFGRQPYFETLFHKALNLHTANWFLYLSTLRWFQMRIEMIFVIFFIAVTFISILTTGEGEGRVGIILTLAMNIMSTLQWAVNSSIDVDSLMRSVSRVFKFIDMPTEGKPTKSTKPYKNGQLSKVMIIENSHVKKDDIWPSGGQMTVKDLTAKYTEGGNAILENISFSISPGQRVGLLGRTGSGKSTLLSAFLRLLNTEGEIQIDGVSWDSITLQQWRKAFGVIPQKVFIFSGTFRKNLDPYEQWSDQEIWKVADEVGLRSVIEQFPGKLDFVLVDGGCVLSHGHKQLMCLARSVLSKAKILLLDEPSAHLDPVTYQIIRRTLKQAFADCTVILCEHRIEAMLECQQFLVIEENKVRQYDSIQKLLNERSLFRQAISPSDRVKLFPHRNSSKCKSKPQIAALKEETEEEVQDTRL
Protocol: as §1
Total protein was quantified in cell lysates using the Bradford assay (BioRad, Hercules, Calif.), separated using SDS-PAGE (6% polyacrylamide gels), and analyzed by Western blotting as described previously (Robert et al., 2007). Western blots were blocked with 5% skimmed milk in PBS and probed overnight at 4° C. with a monoclonal primary anti-CFTR antibody (clone M3A7, Chemicon, Temecula, Calif.) diluted 1:1000. The blots were washed four times in PBS before adding the secondary HRP-conjugated anti-mouse antibody at a dilution of 1:5000 (Amersham, Piscataway, N.J.) for one hour at room temperature, then washed again five times in PBS and visualized using chemiluminescence (Pierce, Rockford, Ill.). The relative intensity of each CFTR glycoform (band B or band C) was estimated by densitometry using the ImageJ software and reported as a percentage of the total CFTR in the same lane (i.e. B+C).

wt CFTR [3] = target: T1, wt CFTR; assay: three stage ELISA of CFTR surface expression, BHK cells expressing wt CFTR; settings: 10% glycerol, cells expressing wild-type CFTR
Protocol: (§2) Cells were screened for CFTR surface expression using a three stage ELISA system (Pierce Inc., USA). Briefly, BHK cells expressing 3HA-tagged ΔF508-CFTR were seeded in 96-well plates (Corning, USA) at 30,000 cells per well and incubated for 24 h at 37° C. Each well was treated with a test compound for 24 h, then cells were fixed in 4% paraformaldehyde solution and washed with PBS containing 0.1% bovine serum albumin and 0.05% tween-20. Cells were blocked for 1 h in solution containing 3% normal horse serum in PBS at room temperature. […] After washing four more times, the cells were exposed to 3,3′,5,5′ tetramethylbenzidine (Pierce Inc., USA) for 15 min, sulphuric acid (2M) was added, and absorbance was measured at 450 nm (Power-Wavex Bio-tek Instruments).
(§3) To determine if cell surface expression of CFTR could be quantified in a high-throughput screen using this assay, cells expressing tagged versions of wt or ΔF508-CFTR were seeded in 96-well plates, treated with 10% glycerol and monitored as light absorbance using an enzyme-linked assay system. As expected, untreated ΔF508-CFTR cells had low absorbance since they expressed little CFTR on their cell surface under control conditions (FIG. 3A).

ΔF508-CFTR [4] = target: T2, ΔF508-CFTR; design: which was then ligated into full length pNUT-CFTR linearized using Hpa1 and Pml1; expressed in transfected cells; settings: 10% glycerol, ΔF508-CFTR cells
How it was run: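 BHK cells stably expressing 3HA-tagged ΔF508-CFTR (tags in fourth extracellular loop) treated with compound at 20 μM final for 24 h at 37° C. Surface ΔF508-CFTR measured on fixed, non-permeabilised cells by anti-HA/FITC immunofluorescence (488/510 nm), relative to untreated-well background; hits retested in duplicate, intrinsically fluorescent compounds excluded.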

ΔF508-CFTR [5] = target: T2, ΔF508-CFTR; assay: three stage ELISA of CFTR surface expression, BHK cells expressing ΔF508-CFTR; design: which was then ligated into full length pNUT-CFTR linearized using Hpa1 and Pml1; expressed in transfected cells; settings: 10% glycerol or 1 mM sodium 4-phenylbutyrate, 24 hours
Protocol: as §2, §3

In the case of `OCC(O)CO` [glycerol], the “increase of band C by densitometry” value (wt CFTR [1]) is reported as 1.5 fold, the “increase of band C by densitometry” value (ΔF508-CFTR [2]) is reported as 37 fold and the “increase of plasma membrane signal” value (wt CFTR [3]) is reported as 2.5 fold. For the same molecule, the “fluorescence increase in comparison with the untreated cells” value (ΔF508-CFTR [4]) was 2.7 fold and the “plasma membrane signal (absorbance), words” value (ΔF508-CFTR [5]) was “increased the plasma membrane signal”.
